Laboratory results published in patent US20260250318A1, “COMPOSITIONS AND METHODS FOR CROSSING THE BLOOD BRAIN BARRIER” (VOYAGER THERAPEUTICS, INC., priority 2022, published 2026).

Tests used:
[1] = tested on: brains, heart, liver, muscle, and DRG of the NHPs; test: Maturation of TTM-001 and TTM-002 capsids, NGS enrichment in NHP tissues; format: in vivo; settings: relative to AAV9 control
In short: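 Variants carry mutations within and flanking the loop IV peptide insert: positions 450–466 were triplet-randomized, while positions 449–466 received low-frequency point mutations. The combined pool went into two NHPs, and each peptide was scored by NGS enrichment ratio against AAV9.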

[2] = tested on: brain; test: Matured TTM-001 and TTM-002 variants, NGS enrichment in mouse brain; format: in vivo, mice; settings: relative to AAV9 control
[3] = NGS fold-enrichment of matured AAV capsid variants, NHP brain, RNA
[4] = NGS fold-enrichment, DRG of NHPs
[5] = NGS fold-enrichment, RNA, brain of NHPs
[6] = NGS fold-enrichment, heart of NHPs
[7] = NGS fold-enrichment, liver DNA of NHPs
[8] = NGS fold-enrichment, liver RNA of NHPs
[9] = NGS fold-enrichment, muscle of NHPs
[10] = NGS fold-enrichment, brain of mice
[11] = NGS fold-enrichment of RNA, NHP brain
[12] = NGS fold-enrichment, NHP liver DNA
[13] = NGS fold-enrichment, NHP liver RNA
[14] = NGS fold-enrichment, NHP muscle
[15] = NGS fold-enrichment, mouse brain

Sequence | Fold Enrichment relative to AAV9, Brain (NHP) [1, 3] [fold] | Fold Enrichment relative to AAV9, DRG (NHP) ([1]; NHP DRG) [fold] | Fold Enrichment relative to AAV9, Heart (NHP) ([1]; NHP heart) [fold] | Fold Enrichment relative to AAV9, Liver DNA (NHP) ([1]; NHP liver, DNA) [fold] | Fold Enrichment relative to AAV9, Liver RNA (NHP) ([1]; NHP liver, RNA) [fold] | Fold Enrichment relative to AAV9, Muscle (NHP) ([1]; NHP muscle) [fold] | Fold Enrichment relative to AAV9, Brain (Mouse) ([2]; mouse brain) [fold] | Fold Enrichment relative to AAV9, DRG (NHP) [1, 4] [fold] | Fold Enrichment relative to AAV9, Brain (NHP) [1, 5] [fold] | Fold Enrichment relative to AAV9, Heart (NHP) [1, 6] [fold] | Fold Enrichment relative to AAV9, Liver DNA (NHP) [1, 7] [fold] | Fold Enrichment relative to AAV9, Liver RNA (NHP) [1, 8] [fold] | Fold Enrichment relative to AAV9, Muscle (NHP) [1, 9] [fold] | Fold Enrichment relative to AAV9, Brain (NHP) [1, 11] [fold] | Fold Enrichment relative to AAV9, DRG (NHP) ([1]; NGS fold-enrichment, NHP DRG) [fold] | Fold Enrichment relative to AAV9, Heart (NHP) ([1]; NGS fold-enrichment, NHP heart) [fold] | Fold Enrichment relative to AAV9, Liver DNA (NHP) [1, 12] [fold] | Fold Enrichment relative to AAV9, Liver RNA (NHP) [1, 13] [fold] | Fold Enrichment relative to AAV9, Muscle (NHP) [1, 14] [fold] | Fold Enrichment relative to AAV9, Brain (Mouse) [2, 15] [fold] | also measured
KSINGSGSPHSKAPNLQT | 51.812 | 0.000 | 0.256 | 0.139 | 0.085 | 0.000 | 59.270 |  |  |  |  |  |  |  |  |  |  |  |  |  | 
KSINGSGSPHSKAQAQQT |  |  |  |  |  |  |  | 0.000 | 66.464 | 0.711 | 0.111 | 0.148 | 0.000 |  |  |  |  |  |  |  | Fold Enrichment relative to AAV9, Brain (Mouse) [2, 10]: 78.451 fold
KSINGSGSPHSKTQSQQT | 58.608 | 0.000 | 3.017 | 0.017 | 0.155 | 0.000 | 71.397 |  |  |  |  |  |  |  |  |  |  |  |  |  | 
KSINGYDSPHKSGQTQQT |  |  |  |  |  |  |  |  |  |  |  |  |  | 79.227 | 1.817 | 0.226 | 1.148 | 0.000 | 0.000 | 4.497 | 
KSIYGHESPHKSGQNQQS |  |  |  |  |  |  |  |  |  |  |  |  |  | 90.947 | 0.817 | 0.310 | 0.243 | 0.000 | 0.000 | 8.064 | 
KSLNGSGSPHTKAQNQQT |  |  |  |  |  |  |  |  |  |  |  |  |  | 81.515 | 0.197 | 0.333 | 0.085 | 0.000 | 0.000 | 45.140 | 
KSVNGNGSPHSKAQNQQT |  |  |  |  |  |  |  | 0.000 | 99.385 | 1.329 | 0.079 | 0.359 | 0.000 | 99.385 | 0.000 | 1.329 | 0.079 | 0.359 | 0.000 | 51.016 | Fold Enrichment relative to AAV9, Brain (Mouse) [2, 10]: 51.016 fold
KTANGSGSPHSKAQYQQT |  |  |  |  |  |  |  | 0.000 | 73.038 | 0.000 | 0.160 | 0.153 | 0.000 |  |  |  |  |  |  |  | Fold Enrichment relative to AAV9, Brain (Mouse) [2, 10]: 139.451 fold
KTCNASGSPHSKAQNQQT | 52.998 | 0.000 | 0.011 | 0.141 | 0.897 | 0.000 | 67.934 |  |  |  |  |  |  |  |  |  |  |  |  |  | 
